Experimental data published in PubChem BioAssay AID288 (DTP/NCI, 2004).
“And” between values parts separate entries of the source, which are not always exact repeats. Equal values may be shown once. Records with an inconclusive call do not appear.

Tested on: BDF1 mice, M5076 sarcoma s.c., survival/tumor T/C
Experiment: NCI In Vivo Anticancer Drug Screen. Data for tumor model Sarcoma M5076 (subcutaneous) in B6D2F1 (BDF1) mice
Protocol: The antitumor activity of compounds was measured in mice bearing transplantable tumors. Survival or tumor size were measured and the results are expressed as the measurement made in the treated group (T) divided by the measurement made in the vehicle treated control group (C). The tumor model used in this assay is Sarcoma M5076 (subcutaneous) in B6D2F1 (BDF1) mice

[1] = endpoint: median survival time, dose: 50.0 mg/kg/injection, schedule: Q01DX009 (ip), vehicle: saline with Tween-80, higher = longer survival
[2] = endpoint: median survival time, dose: 100.0 mg/kg/injection, schedule: Q01DX009 (ip), vehicle: saline with Tween-80, higher = longer survival
[3] = endpoint: median survival time, dose: 200.0 mg/kg/injection, schedule: Q01DX009 (ip), vehicle: saline with Tween-80, higher = longer survival

## CCOC(=O)C(CC(C)C)NC(=O)C(Cc1ccc(N(CCCl)CCCl)cc1)NC(C)=O (stereo unspecified)
endpoint: median survival time, dose: 8.0 mg/kg/injection, schedule: Q01DX009 (ip), vehicle: saline with Tween-80, higher = longer survival
  T/C: 111 % of control
endpoint: median survival time, dose: 16.0 mg/kg/injection, schedule: Q01DX009 (ip), vehicle: saline with Tween-80, higher = longer survival
  T/C: 117 % of control and 122 % of control
endpoint: median survival time, dose: 64.0 mg/kg/injection, schedule: Q01DX009 (ip), vehicle: saline with Tween-80, higher = longer survival
  T/C: 170 % of control
endpoint: median tumor weight (est.), dose: 8.0 mg/kg/injection, schedule: Q01DX009 (ip), vehicle: saline with Tween-80, higher = larger tumour
  T/C: 61 % of control
endpoint: median tumor weight (est.), dose: 16.0 mg/kg/injection, schedule: Q01DX009 (ip), vehicle: saline with Tween-80, higher = larger tumour
  T/C: 52 % of control
endpoint: median tumor weight (est.), dose: 32.0 mg/kg/injection, schedule: Q01DX009 (ip), vehicle: saline with Tween-80, higher = larger tumour
  T/C: 16 % of control

## O=NN(CCCl)C(=O)NC1CCC(=O)NC1=O (stereo unspecified)
endpoint: median survival time, dose: 2.0 mg/kg/injection, schedule: Q01DX009 (ip), vehicle: saline + alcohol, higher = longer survival
  T/C: 170 % of control
endpoint: median survival time, dose: 4.0 mg/kg/injection, schedule: Q01DX009 (ip), vehicle: saline + alcohol, higher = longer survival
  T/C: 208 % of control
endpoint: median survival time, dose: 8.0 mg/kg/injection, schedule: Q01DX009 (ip), vehicle: saline + alcohol, higher = longer survival
  T/C: 86 % of control

## CCC(C)C(NS(=O)(=O)c1ccc(C)cc1)C(=O)O (stereo unspecified)
[1]
  T/C: 87 % of control
[2]
  T/C: 92 % of control
[3]
  T/C: 92 % of control

## CC1CCC(NC(=O)N(CCCl)N=O)CC1 (stereo unspecified)
endpoint: median survival time, dose: 2.5 mg/kg/injection, schedule: Q04DX009 (ip), vehicle: saline with Tween-80, higher = longer survival
  T/C: 109 % of control
endpoint: median survival time, dose: 5.0 mg/kg/injection, schedule: Q02DX011 (ip), vehicle: Klucel (hydroxypropylcellulose) (HPC), higher = longer survival
  T/C: 296 % of control
endpoint: median survival time, dose: 5.0 mg/kg/injection, schedule: Q02DX033 (ip), vehicle: saline with Tween-80, higher = longer survival
  T/C: 230 % of control
endpoint: median survival time, dose: 5.0 mg/kg/injection, schedule: Q04DX005 (ip), vehicle: other, higher = longer survival
  T/C: 191 % of control
endpoint: median survival time, dose: 5.0 mg/kg/injection, schedule: Q04DX009 (ip), vehicle: saline with Tween-80, higher = longer survival
  T/C: 150 % of control
endpoint: median survival time, dose: 10.0 mg/kg/injection, schedule: Q02DX033 (ip), vehicle: saline with Tween-80, higher = longer survival
  T/C: 252 % of control
endpoint: median survival time, dose: 10.0 mg/kg/injection, schedule: Q04DX005 (ip), vehicle: other, higher = longer survival
  T/C: 233 % of control
endpoint: median survival time, dose: 10.0 mg/kg/injection, schedule: Q04DX009 (ip), vehicle: saline with Tween-80, higher = longer survival
  T/C: 298 % of control
endpoint: median survival time, dose: 20.0 mg/kg/injection, schedule: Q01DX003 (ip), vehicle: saline with Tween-80, higher = longer survival
  T/C: 160 % of control
endpoint: median survival time, dose: 20.0 mg/kg/injection, schedule: Q04DX009 (ip), vehicle: saline with Tween-80, higher = longer survival
  T/C: 320 % of control
endpoint: median survival time, dose: 30.0 mg/kg/injection, schedule: Q01DX001 (ip), vehicle: saline with Tween-80, higher = longer survival
  T/C: 154 % of control and 171 % of control
endpoint: median survival time, dose: 30.0 mg/kg/injection, schedule: Q01DX001 (oral), vehicle: saline with Tween-80, higher = longer survival
  T/C: 160 % of control and 191 % of control
endpoint: median survival time, dose: 40.0 mg/kg/injection, schedule: Q01DX001 (oral), vehicle: saline with Tween-80, higher = longer survival
  T/C: 179 % of control and 237 % of control (2×)
endpoint: median survival time, dose: 50.0 mg/kg/injection, schedule: Q01DX001 (ip), vehicle: saline with Tween-80, higher = longer survival
  T/C: 153 % of control and 226 % of control (2×)
endpoint: median survival time, dose: 50.0 mg/kg/injection, schedule: Q01DX001 (oral), vehicle: saline with Tween-80, higher = longer survival
  T/C: 194 % of control and 229 % of control (2×)
endpoint: median survival time, dose: 60.0 mg/kg/injection, schedule: Q01DX001 (oral), vehicle: saline with Tween-80, higher = longer survival
  T/C: 229 % of control (2×) and 233 % of control

## Nc1nc(=S)c2[nH]cnc2[nH]1
endpoint: mean tumor weight, dose: 0.5 mg/kg/injection, schedule: Q02DX011 (ip), vehicle: Klucel (hydroxypropylcellulose) (HPC), higher = larger tumour
  T/C: 58 % of control
endpoint: mean tumor weight, dose: 1.0 mg/kg/injection, schedule: Q02DX011 (ip), vehicle: Klucel (hydroxypropylcellulose) (HPC), higher = larger tumour
  T/C: 16 % of control
endpoint: mean tumor weight, dose: 2.0 mg/kg/injection, schedule: Q02DX011 (ip), vehicle: Klucel (hydroxypropylcellulose) (HPC), higher = larger tumour
  T/C: 3 % of control

## Nc1ncn(C2OC(CO)C(O)C2O)c(=O)n1 (stereo unspecified)
endpoint: median survival time, dose: 0.6 mg/kg/injection, schedule: Q04DX009 (ip), vehicle: saline, higher = longer survival
  T/C: 106 % of control
endpoint: median survival time, dose: 1.2 mg/kg/injection, schedule: Q04DX009 (ip), vehicle: saline, higher = longer survival
  T/C: 112 % of control
endpoint: median survival time, dose: 2.4 mg/kg/injection, schedule: Q04DX009 (ip), vehicle: saline, higher = longer survival
  T/C: 113 % of control
endpoint: median survival time, dose: 4.8 mg/kg/injection, schedule: Q04DX009 (ip), vehicle: saline, higher = longer survival
  T/C: 111 % of control

## C1CCC2OCCOCCOCCOCCOC2C1 (stereo unspecified)
endpoint: median survival time, dose: 50.0 mg/kg/injection, schedule: Q01DX009 (ip), vehicle: saline, higher = longer survival
  T/C: 111 % of control
endpoint: median survival time, dose: 100.0 mg/kg/injection, schedule: Q01DX009 (ip), vehicle: saline, higher = longer survival
  T/C: 113 % of control
endpoint: median tumor weight (est.), dose: 50.0 mg/kg/injection, schedule: Q01DX009 (ip), vehicle: saline, higher = larger tumour
  T/C: 66 % of control
endpoint: median tumor weight (est.), dose: 100.0 mg/kg/injection, schedule: Q01DX009 (ip), vehicle: saline, higher = larger tumour
  T/C: 75 % of control

## C=C1C(O)C2OC3(CCC(/C=C/C(C)C4CC5(C)SC5C5(OC(CC(C)(O)C(=O)O)CCC5O)O4)O3)CCC2OC1C(O)CC(C)C1OC2(CCCCO2)CCC1C (stereo unspecified)
endpoint: median survival time, dose: 1.25 micrograms/kg/injection, schedule: Q01DX009 (ip), vehicle: saline + alcohol, higher = longer survival
  T/C: 101 % of control
endpoint: median survival time, dose: 2.5 micrograms/kg/injection, schedule: Q01DX009 (ip), vehicle: saline + alcohol, higher = longer survival
  T/C: 96 % of control
endpoint: median survival time, dose: 5.0 micrograms/kg/injection, schedule: Q01DX009 (ip), vehicle: saline + alcohol, higher = longer survival
  T/C: 108 % of control
endpoint: median survival time, dose: 10.0 micrograms/kg/injection, schedule: Q01DX009 (ip), vehicle: saline + alcohol, higher = longer survival
  T/C: 96 % of control
endpoint: median tumor weight (est.), dose: 1.25 micrograms/kg/injection, schedule: Q01DX009 (ip), vehicle: saline + alcohol, higher = larger tumour
  T/C: 107 % of control
endpoint: median tumor weight (est.), dose: 2.5 micrograms/kg/injection, schedule: Q01DX009 (ip), vehicle: saline + alcohol, higher = larger tumour
  T/C: 77 % of control
endpoint: median tumor weight (est.), dose: 5.0 micrograms/kg/injection, schedule: Q01DX009 (ip), vehicle: saline + alcohol, higher = larger tumour
  T/C: 92 % of control

## NC(CSC(c1ccccc1)(c1ccccc1)c1ccccc1)C(=O)O (stereo unspecified)
endpoint: mean tumor weight, dose: 17.5 mg/kg/injection, schedule: Q02DX011 (ip), vehicle: acid diluted with saline, higher = larger tumour
  T/C: 103 % of control
endpoint: mean tumor weight, dose: 17.5 mg/kg/injection, schedule: Q02DX011 (ip), vehicle: saline, higher = larger tumour
  T/C: 71 % of control
endpoint: mean tumor weight, dose: 35.0 mg/kg/injection, schedule: Q02DX011 (ip), vehicle: acid diluted with saline, higher = larger tumour
  T/C: 87 % of control
endpoint: mean tumor weight, dose: 35.0 mg/kg/injection, schedule: Q02DX011 (ip), vehicle: saline, higher = larger tumour
  T/C: 53 % of control
endpoint: mean tumor weight, dose: 70.0 mg/kg/injection, schedule: Q02DX011 (ip), vehicle: acid diluted with saline, higher = larger tumour
  T/C: 24 % of control
endpoint: mean tumor weight, dose: 70.0 mg/kg/injection, schedule: Q02DX011 (ip), vehicle: saline, higher = larger tumour
  T/C: 37 % of control
endpoint: median tumor weight (est.), dose: 17.5 mg/kg/injection, schedule: Q02DX011 (ip), vehicle: acid diluted with saline, higher = larger tumour
  T/C: 490 % of control
endpoint: median tumor weight (est.), dose: 17.5 mg/kg/injection, schedule: Q02DX011 (ip), vehicle: saline, higher = larger tumour
  T/C: 65 % of control
endpoint: median tumor weight (est.), dose: 35.0 mg/kg/injection, schedule: Q02DX011 (ip), vehicle: acid diluted with saline, higher = larger tumour
  T/C: 336 % of control
endpoint: median tumor weight (est.), dose: 35.0 mg/kg/injection, schedule: Q02DX011 (ip), vehicle: saline, higher = larger tumour
  T/C: 49 % of control
endpoint: median tumor weight (est.), dose: 70.0 mg/kg/injection, schedule: Q02DX011 (ip), vehicle: acid diluted with saline, higher = larger tumour
  T/C: 293 % of control
endpoint: median tumor weight (est.), dose: 70.0 mg/kg/injection, schedule: Q02DX011 (ip), vehicle: saline, higher = larger tumour
  T/C: 5 % of control

## Cc1ccc(/C=C2\SC(=S)N(C3CC3)C2=O)cc1
[1]
  T/C: 103 % of control
[2]
  T/C: 94 % of control
[3]
  T/C: 98 % of control
endpoint: median tumor weight (est.), dose: 50.0 mg/kg/injection, schedule: Q01DX009 (ip), vehicle: saline with Tween-80, higher = larger tumour
  T/C: 105 % of control
endpoint: median tumor weight (est.), dose: 100.0 mg/kg/injection, schedule: Q01DX009 (ip), vehicle: saline with Tween-80, higher = larger tumour
  T/C: 80 % of control
endpoint: median tumor weight (est.), dose: 200.0 mg/kg/injection, schedule: Q01DX009 (ip), vehicle: saline with Tween-80, higher = larger tumour
  T/C: 93 % of control

## NCCCNCCSP(=O)(O)O
endpoint: median survival time, dose: 25.0 mg/kg/injection, schedule: Q02DX011 (ip), vehicle: saline, higher = longer survival
  T/C: 116 % of control
endpoint: median survival time, dose: 50.0 mg/kg/injection, schedule: Q02DX011 (ip), vehicle: saline, higher = longer survival
  T/C: 106 % of control
endpoint: median survival time, dose: 100.0 mg/kg/injection, schedule: Q02DX011 (ip), vehicle: saline, higher = longer survival
  T/C: 96 % of control

## CS(=O)(=O)OCCCCOS(C)(=O)=O
endpoint: mean tumor weight, dose: 15.0 mg/kg/injection, schedule: Q02DX011 (ip), vehicle: Klucel (hydroxypropylcellulose) (HPC), higher = larger tumour
  T/C: 56 % of control

## Nc1nc(SCC(=O)O)[nH]c(=O)c1N
[1]
  T/C: 93 % of control
[2]
  T/C: 105 % of control
[3]
  T/C: 110 % of control
